This is an account of results in patent US9315490B2, “2,5-substituted pyrimidines” (Grünenthal GmbH, priority 2014, dated 2016).

The target of the assay is T1, human PDE4B1 (Homo sapiens, UniProt Q07343).
T1 construct: host or cells: Sf9 cells
The experiment in a line: TR-FRET assay using the LANCE Ultra cAMP kit to determine the activity of hPDE4B1. In kind it is biochemical. Particulars: read-out: Inhibition in % (inhibition of PDE4B); for inhibition at 1 µM: test concentration 1 μM; for inhibition at 10 µM: test concentration 10 μM (marked in cell). The source says:
TR-FRET Assay Using the LANCE® Ultra cAMP Kit to Determine the Activity of hPDE4B1
The effects of the compounds on the activity of the human PDE4B1 was quantified by measuring the production of 5′AMP from cAMP using a human recombinant enzyme expressed in Sf9 cells and the LANCE® Ultra cAMP kit, a TR-FRET detection method from PerkinElmer. The human PDE4B1 enzyme was purchased from SignalChem Lifesciences (Catalog# P92-31BG, Lot# H296-2).
The test compound, reference compound or water (control) was mixed with the enzyme (0.96 U) in a reaction buffer containing 50 mM Tris-HCl, 50 mM MgCl2 and 5 mM DTT (pH 8.5). Thereafter, the reaction was initiated by addition of 500 nM cAMP (substrate) and the mixture was incubated for 30 minutes at room temperature. For control basal measurements, the enzyme was omitted from the reaction mixture. After 30 minutes, the reaction was stopped and diluted by a factor of 100 with the reaction buffer supplemented with 500 μM IBMX. The fluorescence donor (europium chelate-labeled cAMP) and the fluorescence acceptor (anti-cAMP antibody labeled with the ULight™ dye) were then added together with 500 μM IBMX to a 10 μl aliquot. After 60 minutes, the fluorescence transfer corresponding to the amount of residual cAMP was measured at λex=337 nm, λem=620 nm and λem=665 nm using a microplate reader (PHERAstar, BMG). The enzyme activity was determined by dividing the signal measured at 665 nm by that measured at 620 nm (ratio) multiplied by 10000. The results were expressed as percent inhibition of the control enzyme activity. IC50 values (IC50=concentration causing a half-maximal inhibition of control specific activity) were derived from dose response measurements with ten different concentrations (n=3; N=1-3).
Background: In TR-FRET formats the signal depends on donor and acceptor labels being close together.

T1 sequence (Q07343 whole entry): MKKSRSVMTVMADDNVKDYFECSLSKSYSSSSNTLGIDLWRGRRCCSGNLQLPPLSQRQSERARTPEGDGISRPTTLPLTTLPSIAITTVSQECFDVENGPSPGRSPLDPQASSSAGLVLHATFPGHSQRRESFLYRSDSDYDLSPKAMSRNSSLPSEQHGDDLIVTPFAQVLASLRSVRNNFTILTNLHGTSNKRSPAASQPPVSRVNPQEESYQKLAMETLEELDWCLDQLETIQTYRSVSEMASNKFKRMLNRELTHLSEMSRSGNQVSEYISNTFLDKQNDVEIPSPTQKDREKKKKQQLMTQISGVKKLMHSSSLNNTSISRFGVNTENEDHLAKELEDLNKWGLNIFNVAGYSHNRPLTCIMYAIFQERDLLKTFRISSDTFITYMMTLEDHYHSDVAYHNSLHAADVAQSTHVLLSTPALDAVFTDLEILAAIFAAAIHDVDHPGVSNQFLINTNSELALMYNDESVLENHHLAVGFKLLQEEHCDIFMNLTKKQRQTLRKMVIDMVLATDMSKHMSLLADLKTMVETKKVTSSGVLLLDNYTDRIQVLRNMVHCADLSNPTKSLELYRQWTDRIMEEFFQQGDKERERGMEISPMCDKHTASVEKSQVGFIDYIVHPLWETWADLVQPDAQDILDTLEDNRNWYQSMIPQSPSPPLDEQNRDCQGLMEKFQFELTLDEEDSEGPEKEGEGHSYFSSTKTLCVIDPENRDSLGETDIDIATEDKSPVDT

Consider `CCc1ccc(F)c(-c2cnc(-n3cc([S+](C)[O-])c4ccc(C(=O)N5CCCC5)cc43)nc2)c1` (centres unmarked) [Example 275, (1-(5-(5-Ethyl-2-fluorophenyl)pyrimidin-2-yl)-3-(methylsulfinyl)-1H-indol-6-yl)(pyrrolidin-1-yl)methanone], for which the inhibition at 1 µM was 113%.
Turning to `CCOc1ccc(F)c(-c2cnc(-n3cc([S+](C)[O-])c4ccc(C(=O)N(C)CCO)cc43)nc2)c1` (centres unmarked) [Example 316, 1-(5-(5-Ethoxy-2-fluorophenyl)pyrimidin-2-yl)-N-(2-hydroxyethyl)-N-methyl-3-(methylsulfinyl)-1H-indole-6-carboxamide], the inhibition at 10 µM came to 98%.
As for `COc1ccnc(-c2cnc(-n3cc([S+](C)[O-])c4ccc(C(=O)N5CCCC5)cc43)nc2)c1` (centres unmarked) [Example 342, (1-(5-(4-Methoxypyridin-2-yl)pyrimidin-2-yl)-3-(methylsulfinyl)-1H-indol-6-yl)(pyrrolidin-1-yl)methanone], the inhibition at 10 µM was found to be 113%.
As for `COc1ccc(F)c(-c2cnc(-n3cc(S(C)(=O)=O)c4ccc(C(=O)N(C)CC(N)=O)cc43)nc2)c1` [Example 310, N-(2-Amino-2-oxoethyl)-1-(5-(2-fluoro-5-methoxyphenyl)pyrimidin-2-yl)-N-methyl-3-(methylsulfonyl)-1H-indole-6-carboxamide], the inhibition at 10 µM was determined as 91%.
Consider `CSc1cn(-c2ncc(-c3ccccc3F)cn2)c2cc(C(=O)N3CCOCC3)ccc12` [Example 1d, (1-(5-(2-Fluorophenyl)pyrimidin-2-yl)-3-(methylthio)-1H-indol-6-yl)(morpholino)methanone], for which the inhibition at 1 µM came out at 89%.
Consider `Cc1ccc(F)c(-c2cnc(-n3cc(C(C)O)c4ccc(C(=O)N(C)C)cc43)nc2)c1` (centres unmarked) [Example 322, 1-(5-(2-Fluoro-5-methylphenyl)pyrimidin-2-yl)-3-(1-hydroxyethyl)-N,N-dimethyl-1H-indole-6-carboxamide], for which the inhibition at 10 µM came out at 100%.
Turning to `CCNc1ccc(F)c(-c2cnc(-n3cc([S+](C)[O-])c4ccc(C(=O)N5CCOCC5)cc43)nc2)c1` (centres unmarked) [Example 292, (1-(5-(5-(Ethylamino)-2-fluorophenyl)pyrimidin-2-yl)-3-(methylsulfinyl)-1H-indol-6-yl)(morpholino)methanone], the inhibition at 10 µM stood at 91%.
For `C[S+]([O-])c1cn(-c2ncc(-c3cc(C4CC4)ccn3)cn2)c2cc(C(=O)N3CCOCC3)ccc12` (centres unmarked) [Example 258, (1-(5-(4-Cyclopropylpyridin-2-yl)pyrimidin-2-yl)-3-(methylsulfinyl)-1H-indol-6-yl)(morpholino)methanone], the inhibition at 1 µM was determined as 92%.
`C[S+]([O-])c1cn(-c2ncc(-c3cc(C4(O)CC4)ccc3F)cn2)c2cc(C(=O)N3CCOCC3)ccc12` (centres unmarked) [Example 294, (1-(5-(2-Fluoro-5-(1-hydroxycyclopropyl)phenyl)pyrimidin-2-yl)-3-(methylsulfinyl)-1H-indol-6-yl)(morpholino)methanone]: the inhibition at 10 µM is 98%.
With `CC(O)c1ccnc(-c2cnc(-n3cc([S+](C)[O-])c4ccc(C(=O)N5CCOCC5)cc43)nc2)c1` (centres unmarked) [Example 291, (1-(5-(4-(1-Hydroxyethyl)pyridin-2-yl)pyrimidin-2-yl)-3-(methylsulfinyl)-1H-indol-6-yl)(morpholino)methanone], the inhibition at 1 µM stood at 90%.
Still for that read-out and setting: the value for `CCOc1ccc(F)c(-c2cnc(-n3cc([S+](C)[O-])c4ccc(C(=O)N5CCOCC5)cc43)nc2)c1` (centres unmarked) [Example 261, (1-(5-(5-Ethoxy-2-fluorophenyl)pyrimidin-2-yl)-3-(methylsulfinyl)-1H-indol-6-yl)(morpholino)methanone] was 55%.
With `C[S+]([O-])c1cn(-c2ncc(-c3cc(N4CCCC4)ccn3)cn2)c2cc(C(=O)N3CCOCC3)ccc12` (centres unmarked) [Example 301, (3-(Methylsulfinyl)-1-(5-(4-(pyrrolidin-1-yl)pyridin-2-yl)pyrimidin-2-yl)-1H-indol-6-yl)(morpholino)methanone], the inhibition at 10 µM stood at 99%.
Consider `CN(CCCO)C(=O)c1ccc2c([S+](C)[O-])cn(-c3ncc(-c4ccccc4F)cn3)c2c1` (centres unmarked) [Example 307, 1-(5-(2-Fluorophenyl)pyrimidin-2-yl)-N-(3-hydroxypropyl)-N-methyl-3-(methylsulfinyl)-1H-indole-6-carboxamide], for which the inhibition at 1 µM came to 82%.
As for `Cc1ccc(F)c(-c2cnc(-n3cc([S+](C)[O-])c4ccc(C(=O)N(C)C)cc43)nc2)c1` (centres unmarked) [Example 267, 1-(5-(2-Fluoro-5-methylphenyl)pyrimidin-2-yl)-N,N-dimethyl-3-(methylsulfinyl)-1H-indole-6-carboxamide], the inhibition at 1 µM worked out at 94%.
For the compound `Cc1ccnc(-c2cnc(-n3cc([S+](C)[O-])c4ccc(C(=O)N5CC[C@@H](N)C5)cc43)nc2)c1` (stereo partly drawn) [Example 336, ((R)-3-Aminopyrrolidin-1-yl)(1-(5-(4-methylpyridin-2-yl)pyrimidin-2-yl)-3-(methylsulfinyl)-1H-indol-6-yl)methanone], the inhibition at 10 µM was 64%.
For the compound `Cc1ccc(F)c(-c2cnc(-n3cc(C(C)O)c4ccc(C(=O)N5CC[C@@H](N)C5)cc43)nc2)c1` (stereo partly drawn) [Example 321, ((R)-3-Aminopyrrolidin-1-yl)(1-(5-(2-fluoro-5-methylphenyl)pyrimidin-2-yl)-3-(1-hydroxyethyl)-1H-indol-6-yl)methanone], the inhibition at 10 µM is 143%.
As for `C[S+]([O-])c1cn(-c2ncc(-c3cc(C4(O)CC4)ccn3)cn2)c2cc(C(=O)N3CCOCC3)ccc12` (centres unmarked) [Example 295, (1-(5-(4-(1-Hydroxycyclopropyl)pyridin-2-yl)pyrimidin-2-yl)-3-(methylsulfinyl)-1H-indol-6-yl)(morpholino)methanone], the inhibition at 10 µM was determined as 98%.
As to `Cc1ccc(F)c(-c2cnc(-n3cc([S+](C)[O-])c4ccc(C(=O)N5C[C@@H]6C[C@H]5CN6)cc43)nc2)c1` (stereo partly drawn) [Example 249, (1S,4S)-2,5-Diazabicyclo[2.2.1]heptan-2-yl(1-(5-(2-fluoro-5-methylphenyl)pyrimidin-2-yl)-3-(methylsulfinyl)-1H-indol-6-yl)methanone], the inhibition at 1 µM is 93%.
Consider `CNC(=O)CN(C)C(=O)c1ccc2c([S+](C)[O-])cn(-c3ncc(-c4cc(C)ccc4F)cn3)c2c1` (centres unmarked) [Example 304, 1-(5-(2-Fluoro-5-methylphenyl)pyrimidin-2-yl)-N-methyl-N-(2-(methylamino)-2-oxoethyl)-3-(methylsulfinyl)-1H-indole-6-carboxamide], for which the inhibition at 10 µM is 115%.
For the compound `CCOc1ccnc(-c2cnc(-n3cc([S+](C)[O-])c4ccc(C(=O)N5CCOCC5)cc43)nc2)c1` (centres unmarked) [Example 260, (1-(5-(4-Ethoxypyridin-2-yl)pyrimidin-2-yl)-3-(methylsulfinyl)-1H-indol-6-yl)(morpholino)methanone], the inhibition at 1 µM stood at 95%.
Same read-out and setting: the value for `CCOc1ccc(F)c(-c2cnc(-n3cc(S(C)(=O)=O)c4ccc(C(=O)N5CCOCC5)cc43)nc2)c1` [Example 326, (1-(5-(5-Ethoxy-2-fluorophenyl)pyrimidin-2-yl)-3-(methylsulfonyl)-1H-indol-6-yl)(morpholino)methanone] was 98%.
`Cc1ccnc(-c2cnc(-n3cc(C(C)O)c4ccc(C(=O)N(C)CC(N)=O)cc43)nc2)c1` (centres unmarked) [Example 332, N-(2-Amino-2-oxoethyl)-3-(1-hydroxyethyl)-N-methyl-1-(5-(4-methylpyridin-2-yl)pyrimidin-2-yl)-1H-indole-6-carboxamide]: the inhibition at 10 µM is 82%.
`Cc1ccnc(-c2cnc(-n3cc([S+](C)[O-])c4ccc(C(=O)N5CCCC5)cc43)nc2)c1` (centres unmarked) [Example 269, (1-(5-(4-Methylpyridin-2-yl)pyrimidin-2-yl)-3-(methylsulfinyl)-1H-indol-6-yl)(pyrrolidin-1-yl)methanone]: the inhibition at 1 µM was 97%.
Same read-out and setting: the value for `Cc1ccc(F)c(-c2cnc(-n3cc(S(C)(=O)=O)c4ccc(C(=O)N5CCOCC5)cc43)nc2)c1` [Example 350, (1-(5-(2-Fluoro-5-methylphenyl)pyrimidin-2-yl)-3-(methylsulfonyl)-1H-indol-6-yl)(morpholino)methanone] was 93%; that for `CS(=N)(=O)c1cn(-c2ncc(-c3ccccc3F)cn2)c2cc(C(=O)N3CCOCC3)ccc12` (centres unmarked) [Example 287, (1-(5-(2-Fluorophenyl)pyrimidin-2-yl)-3-(S-methylsulfonimidoyl)-1H-indol-6-yl)(morpholino)methanone] was 93%.
On to `CC(O)c1ccc(F)c(-c2cnc(-n3cc(S(C)(=O)=O)c4ccc(C(=O)N5CCOCC5)cc43)nc2)c1` (single isomer, unassigned) [Example 344, (1-(5-(2-Fluoro-5-(1-hydroxyethyl)phenyl)pyrimidin-2-yl)-3-(methylsulfonyl)-1H-indol-6-yl)(morpholino)methanone], for which the inhibition at 10 µM turned out to be 96%.

The term inhibition denotes the relative decrease from the control value, in per cent.
